Assay results from patent US5447719A, “β-glucuronidase inhibitor” (priority 1991, dated 1995).

What was measured:
[1] = target: T1, β-glucuronidase (Escherichia coli, UniProt P05804); assay: β-glucuronidase inhibition: residual activity (production of formula III compound from formula II compound, HPLC); type: biochemical; conditions: formula II substrate 100 nmol/ml, pH 6.8, 37° C., 20 min; for remaining activity at 0.0167 µM: 16.7 nM; for remaining activity at 0.0333 µM: 33.3 nM; for remaining activity at 0.1667 µM: 166.7 nM
T1 construct: purchased Sigma Chemical Co
T1 sequence (P05804 whole entry): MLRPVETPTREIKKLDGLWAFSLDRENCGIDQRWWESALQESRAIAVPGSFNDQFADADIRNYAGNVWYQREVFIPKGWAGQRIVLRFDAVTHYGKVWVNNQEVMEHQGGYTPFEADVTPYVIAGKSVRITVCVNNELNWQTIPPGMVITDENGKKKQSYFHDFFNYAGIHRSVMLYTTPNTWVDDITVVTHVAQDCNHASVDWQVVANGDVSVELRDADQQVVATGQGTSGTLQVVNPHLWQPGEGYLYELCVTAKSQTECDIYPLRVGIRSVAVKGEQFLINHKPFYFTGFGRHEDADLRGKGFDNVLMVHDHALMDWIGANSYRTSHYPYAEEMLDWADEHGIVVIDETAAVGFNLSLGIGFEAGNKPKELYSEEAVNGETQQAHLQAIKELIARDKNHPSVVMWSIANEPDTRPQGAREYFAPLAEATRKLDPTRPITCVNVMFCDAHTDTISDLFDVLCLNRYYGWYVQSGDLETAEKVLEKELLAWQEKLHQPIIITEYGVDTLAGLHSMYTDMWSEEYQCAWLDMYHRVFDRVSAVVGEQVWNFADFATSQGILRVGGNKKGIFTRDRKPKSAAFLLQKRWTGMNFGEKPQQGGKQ
Procedure: β-glucuronidase (manufactured by Sigma Chemical Co.) derived from Escherichia coli was added to a reaction solution comprising 50 μl of potassium phosphate buffer (pH: 6.8), a solution of a compound (100 nmol/ml) represented by the formula II and produced by Reference Example which will be described later and a specimen, and a reaction was allowed to proceed at 37° C. for 20 min. A glycine buffer (pH: 10.4) was added to terminate the reaction. 10 μl of the reaction mixture and 100 μl of an internal standard (camptothecin) solution were added to 1 ml of a 0.01N aqueous hydrochloric acid solution, and the mixture was applied to Bond Elute C18 (Analytichem), washed with water and 0.01N aqueous hydrochloric acid solution. Elution was effected with acetonitrile/water (1:2). 100 μl of the eluate obtained by elution with acetonitrile/water (1:2) was analyzed by high performance liquid chromatography (HPLC) under the following conditions, and the β-glucuronidase activity was calculated by using the amount of production of the compound represented by the formula III as an indication.
Apparatus: high performance liquid chromatograph HLC-803D manufactured by Toyo Soda
Analytical column: Tosoh ODS-80TM 250×4.6 mm (I.D.)
Thermostatic chamber of column: Tosoh CO-8011 40° C.
Guard column: Tosoh TSKguradgel ODS-120T
Detector: Shimazu Fluorescence HPLCMonitor RF-530
Detection wavelength: Ex380nm Em556nm
Autosampler: Tosoh AS-8000
Eluent: acetonitrile/water (1:2)

[2] = test system: bone marrow; conditions: cited from earlier work

Row | SMILES | remaining activity at 0.0167 µM [1] | remaining activity at 0.0333 µM [1] | remaining activity at 0.1667 µM [1] | toxicity [2]
1 | O=C(O)[C@H]1O[C@@H](Oc2cc3oc(-c4ccccc4)cc(=O)c3c(O)c2O)[C@H](O)[C@@H](O)[C@@H]1O [Baicalin, baicalin] | 19% | 10.7% | 2.3% | 
2 | CC[C@@]1(O)C(=O)OCc2c1cc1n(c2=O)Cc2cc3ccccc3nc2-1 [Camptothecin, camptothecin] |  |  |  | strong inhibition of bone marrow
3 | O=C(O)[C@H]1O[C@@H](Oc2cc(-c3cc(=O)c4c(O)cc(O)cc4o3)ccc2O)[C@H](O)[C@@H](O)[C@@H]1O [Luteolin-3'-glucuronide, luteolin-3'-glucuronide] | 28.5% | 13.2% | 2.1% | 
4 | COc1c(O[C@@H]2O[C@H](C(=O)O)[C@@H](O)[C@H](O)[C@H]2O)cc2oc(-c3ccccc3)cc(=O)c2c1O [Oroxylin A-7-O-glucuronide, oroxylin A-7-O-glucuronide] | 31.1% | 17% | 3% | 
